Some results are limits rather than exact numbers.

The first test has as its system Copepodids (juvenile sea lice stage of Lepeophtheirus salmonis). Kind of test: Juvenile sea lice contact assay. Particulars: test concentration 10 nM, approx. 24 hours continuous exposure, read-out: Sea lice inhibition (% of dead+damaged copepodids). The method, then: Copepodids (juvenile sea lice stage of Lepeophtheirus salmonis) were exposed to seawater spiked with declining concentrations of a test compound (dissolved in a DMSO sea-water mixture). Sea lice inhibition (% of dead+damaged copepodids) was assessed after approximately 24 hours of continuous exposure. The vitality of used parasites was confirmed in a negative (solvent) control group.
In the case of `O=C(Nc1ncc(F)cc1F)c1cc(NC(=O)C2C(c3cc(Cl)cc(C(F)(F)F)c3)C2(Cl)Cl)ccc1Cl` (centres unmarked) [Compound 1389], the inhibition (usually the share of the control response that was lost under treatment) at 0.01 µM turned out to be 100%. For the compound `O=C(Nc1ccc(F)cc1F)c1cc(NC(=O)C2C(c3cc(C(F)(F)F)cc(C(F)(F)F)c3)C2(Cl)Cl)ccc1Cl` (centres unmarked) [Compound 1386], the inhibition at 0.01 µM came out at 80%. `O=C(Nc1cncnc1)c1cc(NC(=O)C2C(c3cc(Cl)cc(Cl)c3)C2(Cl)Cl)ccc1Cl` (centres unmarked) [Compound 1038]: the inhibition at 0.01 µM stood at 80%. As for `Cc1ccccc1NC(=O)c1cc(NC(=O)C2C(c3cc(Cl)cc(Cl)c3)C2(Cl)Cl)ccc1Cl` (centres unmarked) [Compound 1000], the inhibition at 0.01 µM stood at 100%.

With `N#Cc1ccc(NC(=O)c2cc(NC(=O)C3C(c4cc(Cl)cc(Cl)c4)C3(Cl)Cl)ccc2Cl)cn1` (centres unmarked) [Compound 1011], the inhibition at 0.01 µM came to 100%.

Regarding `O=C(Nc1ccccc1)c1cc(NC(=O)C2C(c3cc(Cl)cc(Cl)c3)C2(Cl)Cl)ccc1Cl` (centres unmarked) [Compound 1004], the inhibition at 0.01 µM amounted to 80%.

Still in this test, the particulars now being: test concentration 100 nM, approx. 24 hours continuous exposure, read-out: Sea lice inhibition (% of dead+damaged copepodids).
In the case of `Cc1cc(Cl)cc(C2C(C(=O)Nc3ccc(Cl)c(C(=O)Nc4c(F)cccc4F)c3)C2(Cl)Cl)c1` (centres unmarked) [Compound 1018], the inhibition at 0.1 µM is 100%.

`O=C(Nc1cccnc1)c1cc(NC(=O)C2C(c3cc(Cl)cc(Cl)c3)C2(Cl)Cl)ccc1Cl` (centres unmarked) [Compound 1008]: the inhibition at 0.1 µM came to 100%. Regarding `COc1ccc(NC(=O)c2cc(NC(=O)C3C(c4cc(Cl)cc(Cl)c4)C3(Cl)Cl)ccc2Cl)cn1` (centres unmarked) [Compound 1075], the inhibition at 0.1 µM worked out at 100%.

For `Nc1c(F)ccc(NC(=O)c2cc(NC(=O)C3C(c4cccc(F)c4)C3(Cl)Cl)ccc2Cl)c1F` (centres unmarked) [Compound 1227], the inhibition at 0.1 µM amounted to 100%. Still for that read-out and setting: in the case of `Nc1cccc(NC(=O)c2cc(NC(=O)C3C(c4cc(Cl)cc(Cl)c4)C3(Cl)Cl)ccc2Cl)n1` (centres unmarked) [Compound 1045] it was 100%. `O=C(Nc1cncc([N+](=O)[O-])c1)c1cc(NC(=O)C2C(c3cc(Cl)cc(Cl)c3)C2(Cl)Cl)ccc1Cl` (centres unmarked) [Compound 1051]: the inhibition at 0.1 µM turned out to be 100%. Turning to `O=C(Nc1ncc(F)cc1F)c1cc(NC(=O)C2C(c3ccc(F)c(C(F)F)c3)C2(Cl)Cl)ccc1Cl` (centres unmarked) [Compound 1082], the inhibition at 0.1 µM came out at 100%. Take `O=C(Nc1cccc(F)n1)c1cc(NC(=O)C2C(c3cc(Cl)cc(Cl)c3)C2(Cl)Cl)ccc1Cl` (centres unmarked) [Compound 1030]: the inhibition at 0.1 µM is not below 80%. On the same count and under the same terms, next, `N#Cc1cc(Cl)cc(C2C(C(=O)Nc3ccc(Cl)c(C(=O)Nc4ncc(F)cc4F)c3)C2(Cl)Cl)c1` (centres unmarked) [Compound 1048]: 100%. On to `Nc1c(F)ccc(NC(=O)c2cc(NC(=O)C3C(c4cccc(C(F)(F)F)c4)C3(Cl)Cl)ccc2Cl)c1F` (centres unmarked) [Compound 1243], for which the inhibition at 0.1 µM is 100%. Same read-out and setting: next, `N#Cc1cc(F)ccc1NC(=O)c1cc(NC(=O)C2C(c3cc(Cl)cc(Cl)c3)C2(Cl)Cl)ccc1Cl` (centres unmarked) [Compound 1026]: 100%; `O=C(Nc1ncc(F)c(I)c1F)c1cc(NC(=O)C2C(c3cc(Cl)cc(Cl)c3)C2(Cl)Cl)ccc1Cl` (centres unmarked) [Compound 1060]: 100%; `O=C(Nc1ncc(F)cc1F)c1c(Cl)ccc(NC(=O)C2C(c3cc(Cl)cc(Cl)c3)C2(Cl)Cl)c1F` (centres unmarked) [Compound 1381]: 100%. Consider `Cc1cc(F)cnc1NC(=O)c1cc(NC(=O)C2C(c3cc(Cl)cc(Cl)c3)C2(Cl)Cl)ccc1Cl` (centres unmarked) [Compound 1031], for which the inhibition at 0.1 µM turned out to be 100%. For the compound `CN(C(=O)c1cc(NC(=O)C2C(c3cc(Cl)cc(Cl)c3)C2(Cl)Cl)ccc1Cl)c1ccc(F)cc1` (centres unmarked) [Compound 1022], the inhibition at 0.1 µM was not below 80%. Take `O=C(Nc1ncc(F)cc1F)c1cc(NC(=O)C2C(c3cc(Cl)cc(C(F)F)c3)C2(Cl)Cl)ccc1Cl` (centres unmarked) [Compound 1079]: the inhibition at 0.1 µM is 100%. As for `O=C(Nc1ccc(F)cc1)c1cc(NC(=O)C2C(c3cc(Cl)cc(Cl)c3)C2(Cl)Cl)ccc1Cl` (centres unmarked) [Compound 1021], the inhibition at 0.1 µM came out at 100%. In the case of `O=C(Nc1ncc(F)cc1F)c1cc(NC(=O)C2C(c3cccc(C(F)F)c3)C2(Cl)Cl)ccc1Cl` (centres unmarked) [Compound 1085], the inhibition at 0.1 µM is 100%. On to `Cc1cc(NC(=O)c2cc(NC(=O)C3C(c4cc(Cl)cc(Cl)c4)C3(Cl)Cl)ccc2Cl)cnc1F` (centres unmarked) [Compound 1064], for which the inhibition at 0.1 µM is 100%. As for `O=C(Nc1ncc(F)cc1F)c1cc(NC(=O)C2C(c3cc(Cl)c(Cl)c(Cl)c3)C2(Cl)Cl)ccc1Cl` (centres unmarked) [Compound 1384], the inhibition at 0.1 µM was found to be 100%. For `O=C(Nc1ccc2nccn2c1)c1cc(NC(=O)C2C(c3cc(Cl)cc(Cl)c3)C2(Cl)Cl)ccc1Cl` (centres unmarked) [Compound 1373], the inhibition at 0.1 µM turned out to be 100%.

For `Cc1ccc(NC(=O)C2C(c3ccc(Cl)c(Cl)c3)C2(Cl)Cl)c(F)c1C(=O)Nc1ncc(F)cc1F` (centres unmarked) [Compound 1382], the inhibition at 0.1 µM stood at 100%.

`Cc1cc(Cl)cc(C2C(C(=O)Nc3ccc(Cl)c(C(=O)Nc4ccc(F)cc4)c3)C2(Cl)Cl)c1` (centres unmarked) [Compound 1016]: the inhibition at 0.1 µM was determined as 100%.

As to `O=C(Nc1ncc(F)cc1F)c1cc(NC(=O)C2C(c3ccc(Cl)c(C(F)F)c3)C2(Cl)Cl)ccc1Cl` (centres unmarked) [Compound 1080], the inhibition at 0.1 µM came to 100%. With `N#Cc1cccc(NC(=O)c2cc(NC(=O)C3C(c4cc(Cl)cc(Cl)c4)C3(Cl)Cl)ccc2Cl)c1` (centres unmarked) [Compound 1005], the inhibition at 0.1 µM came to 100%. The same measure, in the same setting: in the case of `O=C(Nc1ncc(F)cc1F)c1cc(NC(=O)C2C(c3cc(F)cc(C(F)F)c3)C2(Cl)Cl)ccc1Cl` (centres unmarked) [Compound 1081] it was 100%; in that of `O=C(Nc1ccnc(Cl)c1)c1cc(NC(=O)C2C(c3cc(Cl)cc(Cl)c3)C2(Cl)Cl)ccc1Cl` (centres unmarked) [Compound 1055], not below 80%; in that of `Nc1c(F)ccc(NC(=O)c2cc(NC(=O)C3C(c4cc(F)cc(C(F)(F)F)c4)C3(Cl)Cl)ccc2Cl)c1F` (centres unmarked) [Compound 1132], 100%. Take `O=C(Nc1ccc(Cl)nc1)c1cc(NC(=O)C2C(c3cc(Cl)cc(Cl)c3)C2(Cl)Cl)ccc1Cl` (centres unmarked) [Compound 1010]: the inhibition at 0.1 µM turned out to be 100%.

As for `COc1ccc(NC(=O)c2cc(NC(=O)C3C(c4ccc(F)c(Cl)c4)C3(Cl)Cl)ccc2Cl)cn1` (centres unmarked) [Compound 1076], the inhibition at 0.1 µM was not below 80%. Consider `O=C(Nc1ncc(F)cn1)c1cc(NC(=O)C2C(c3cc(Cl)cc(Cl)c3)C2(Cl)Cl)ccc1Cl` (centres unmarked) [Compound 1028], for which the inhibition at 0.1 µM was found to be 100%. On to `O=C(Nc1ncc(F)cc1F)c1cc(NC(=O)C2C(c3ccc(C(F)F)c(Cl)c3)C2(Cl)Cl)ccc1Cl` (centres unmarked) [Compound 1083], for which the inhibition at 0.1 µM turned out to be 100%. On to `N#Cc1cccc(F)c1NC(=O)c1cc(NC(=O)C2C(c3cc(Cl)cc(Cl)c3)C2(Cl)Cl)ccc1Cl` (centres unmarked) [Compound 1040], for which the inhibition at 0.1 µM turned out to be 100%.

Regarding `Cc1ccc(NC(=O)C2C(c3cc(Cl)cc(Cl)c3)C2(Cl)Cl)cc1C(=O)Nc1ccc(F)cc1` (centres unmarked) [Compound 1001], the inhibition at 0.1 µM came out at 100%.

`Nc1cccc(NC(=O)c2cc(NC(=O)C3C(c4ccc(F)c(Cl)c4)C3(Cl)Cl)ccc2Cl)n1` (centres unmarked) [Compound 1046]: the inhibition at 0.1 µM came out at 100%. Regarding `COc1cc(NC(=O)c2cc(NC(=O)C3C(c4cc(Cl)cc(Cl)c4)C3(Cl)Cl)ccc2Cl)ccn1` (centres unmarked) [Compound 1069], the inhibition at 0.1 µM worked out at 100%. As for `Nc1c(F)ccc(NC(=O)c2cc(NC(=O)C3C(c4cccc(Cl)c4)C3(Cl)Cl)ccc2Cl)c1F` (centres unmarked) [Compound 1248], the inhibition at 0.1 µM turned out to be 100%.

Another test has as its system Mobile stages of sea lice (pre-adults, adults of Lepeophtheirus salmonis). Briefly: Adult sea lice contact assay. Particulars: pre-adult/adult L. salmonis, assessed after approx. 1 and 24 hours, time of EC50 not stated, read-out: EC50 (sea lice inhibition, dead+damaged). The method, then: Mobile stages of sea lice (i.e., pre-adults, adults of Lepeophtheirus salmonis) were exposed to seawater spiked with declining concentrations of a test compound (dissolved in a PEG sea-water mixture). Sea lice inhibition (% of dead+damaged sea lice) was assessed after approximately 1 and 24 hours of continuous exposure in comparison to a negative (solvent) control group.
Consider `O=C(Nc1ccc(F)cc1F)c1cc(NC(=O)[C@H]2[C@H](c3cc(F)c(F)c(F)c3)C2(Cl)Cl)ccc1Cl` [Compound 1094], for which the EC50 – broadly, the concentration that produces a half-maximal response – fell in the range of 1 to 10 nM. On to `O=C(Nc1ncc(F)cc1F)c1cc(NC(=O)C2C(c3cc(Cl)cc(C(F)(F)F)c3)C2(Cl)Cl)ccc1Cl` (centres unmarked) [Compound 1389], for which the EC50 is not above 1 nM. In the case of `O=C(Nc1ncc(F)cc1F)c1cc(NC(=O)[C@H]2[C@H](c3ccc(F)c(Cl)c3)C2(Cl)Cl)ccc1Cl` [Compound 1042], the EC50 lay within 1 to 10 nM. As to `O=C(Nc1ccc(F)cc1F)c1cc(NC(=O)[C@H]2[C@H](c3cc(Cl)cc(Cl)c3)C2(Cl)Cl)ccc1F` [Compound 1091], the EC50 fell in the range of 1 to 10 nM. Take `Cc1cc(NC(=O)c2cc(NC(=O)[C@H]3[C@H](c4cc(Cl)cc(Cl)c4)C3(Cl)Cl)ccc2Cl)ncc1F` [Compound 1098]: the EC50 was 1 to 10 nM. As for `O=C(Nc1ncc(F)cc1F)c1cc(NC(=O)[C@H]2[C@H](c3ccc(Cl)c(Cl)c3)C2(Cl)Cl)ccc1Cl` [Compound 1041], the EC50 was in the range of 1 to 10 nM. Consider `O=C(Nc1c(F)cc(F)cc1F)c1cc(NC(=O)C2C(c3cc(Cl)cc(Cl)c3)C2(Cl)Cl)ccc1Cl` (centres unmarked) [Compound 1006], for which the EC50 was not above 1 nM. Still for that read-out and setting: next, `O=C(Nc1cnc(F)cc1F)c1cc(NC(=O)[C@H]2[C@H](c3cc(Cl)cc(Cl)c3)C2(Cl)Cl)ccc1Cl` [Compound 1366]: 1 to 10 nM. Take `O=C(Nc1ncc(F)cn1)c1cc(NC(=O)[C@H]2[C@H](c3cc(Cl)cc(Cl)c3)C2(Cl)Cl)ccc1Cl` [Compound 1372]: the EC50 lay in the range of 1 to 10 nM. As to `O=C(Nc1c(F)ccnc1F)c1cc(NC(=O)[C@H]2[C@H](c3cc(Cl)cc(Cl)c3)C2(Cl)Cl)ccc1Cl` [Compound 1367], the EC50 fell in the range of 1 to 10 nM. In the case of `O=C(Nc1cnc(F)cc1F)c1cc(NC(=O)[C@H]2[C@H](c3cc(Cl)c(Cl)c(Cl)c3)C2(Cl)Cl)ccc1Cl` [Compound 1380], the EC50 lay within 1 to 10 nM. As for `O=C(Nc1ncc(F)cc1F)c1cc(NC(=O)[C@H]2[C@H](c3cc(Cl)cc(Cl)c3)C2(Cl)Cl)ccc1Cl` [Compound 1097], the EC50 was 1 to 10 nM. On to `O=C(Nc1c(F)cc(F)cc1F)c1cc(NC(=O)[C@H]2[C@H](c3cc(Cl)cc(Cl)c3)C2(Cl)Cl)ccc1Cl` [Compound 1092], for which the EC50 is 1 to 25 nM.

Values taken from patent publication US20240316045A1, “CYCLOPROPYLAMIDE COMPOUNDS AGAINST PARASITES IN FISH” (Intervet Inc., priority 2021, published 2024).
